# Data reported in US4221811A, “Antifungal and/or antibacterial organotin compounds, and use” (priority 1977, dated 1980).
# Tests used:
# Cladosporium cucumerinum = assay type: cell-based; details: after three days, glucose-agar, pH~6.9-7.0
# Source text: (§1) Antifungal activity of organotin compounds. Minimal concentra-
# (§2) tion (mg/l) causing complete inhibition of visible growth (MIC;
# (§3) after three days). -Test medium: glucose-agar; pH~6.9-7.0.
# Botrytis allii = assay type: cell-based; details: after three days, glucose-agar, pH~6.9-7.0
# Source text: as §1, §2, §3
# Aspergillus niger = assay type: cell-based; details: after three days, glucose-agar, pH~6.9-7.0
# Source text: as §1, §2, §3
# Penicillium italicum = assay type: cell-based; details: after three days, glucose-agar, pH~6.9-7.0
# Source text: as §1, §2, §3
# fungi [1] = assay: Antifungal activity; assay type: cell-based
# Source text: as §1, §2, §3
# B. subtilis = assay type: cell-based; details: B. subtilis (Gram-pos.); after three days; peptone-glucose agar; pH ~ 6.9-7.0
# Source text: (§4) Antibacterial activity of organotin compounds. Minimal concentration
# (§5) causing complete inhibition of visible growth (MIC; after three days).
# (§6) Test medium: peptone-glucose agar; pH ~ 6.9-7.0.
# E. coli = assay type: cell-based; details: E. coli (Gram-neg.); after three days; peptone-glucose agar; pH ~ 6.9-7.0
# Source text: as §4, §5, §6
# S. lactis = assay type: cell-based; details: S. lactis (Gram-pos.); after three days; peptone-glucose agar; pH ~ 6.9-7.0
# Source text: as §4, §5, §6
# P. fluorescens = assay type: cell-based; details: P. fluorescens (Gram-neg.); after three days; peptone-glucose agar; pH ~ 6.9-7.0
# Source text: as §4, §5, §6
# fungi [2] = details: literature citation (1); cited from earlier work
# bacteria = assay: Antibacterial activity; assay type: cell-based
# Source text: as §4, §5, §6
# physchem = details: water
structure (smiles),measurement,setting,value
"CCC[CH2][Sn]([CH3])([Br])[CH2]CC[N+](C)(C)C.[I-] (stereo not shown) [MeBuBrSn(CH2)3 NMe3 I, reference compound]",Minimal concentration causing complete inhibition of visible growth (MIC),Cladosporium cucumerinum,> 500 µg/mL
same,Minimal concentration causing complete inhibition of visible growth (MIC),Botrytis allii,> 500 µg/mL
same,Minimal concentration causing complete inhibition of visible growth (MIC),Aspergillus niger,> 500 µg/mL
same,Minimal concentration causing complete inhibition of visible growth (MIC),Penicillium italicum,> 500 µg/mL
same,"antifungal activity, MIC",fungi [1],> 500 µg/mL
"CCC[CH2][Sn]([CH2]CCC)([CH2]CCC)[CH2]CCCBr [Bu3 Sn(CH2)4 Br, (4-bromobutyl)tributyltin]",antifungal activity (in words),fungi [1],"somewhat less effective, although they show a surprisingly effective antifungal activity"
CCC[CH2][Sn]([CH3])([CH2]CCC)[CH2]CCNCCCN(C)C.Cl.Cl [MeBu2 Sn(CH2)3 NH(CH2)3 NMe2 . 2],Minimal concentration causing complete inhibition of visible growth (MIC),B. subtilis,3 µg/mL
same,Minimal concentration causing complete inhibition of visible growth (MIC),E. coli,3 µg/mL
same,Minimal concentration causing complete inhibition of visible growth (MIC),S. lactis,3 µg/mL
same,Minimal concentration causing complete inhibition of visible growth (MIC),P. fluorescens,3 µg/mL
same,solubility in water,,50%
same,Minimal concentration causing complete inhibition of visible growth (MIC),Cladosporium cucumerinum,20 µg/mL
same,Minimal concentration causing complete inhibition of visible growth (MIC),Botrytis allii,≤ 10 µg/mL
same,Minimal concentration causing complete inhibition of visible growth (MIC),Aspergillus niger,100 µg/mL
same,Minimal concentration causing complete inhibition of visible growth (MIC),Penicillium italicum,≤ 10 µg/mL
CCC[CH2][Sn]([CH3])([Br])[CH2]CCC [MeBu2 SnBr],"antifungal activity, MIC values",fungi [2],about 10 mg/l
"CCC[CH2][Sn]([CH2]CCC)([CH2]CCC)[CH2]CC(=O)OC [Bu3 Sn(CH2)2 COOMe, tributyl-(3-carbomethoxyethyl)tin]",Minimal concentration causing complete inhibition of visible growth (MIC),B. subtilis,30 µg/mL
same,Minimal concentration causing complete inhibition of visible growth (MIC),E. coli,100 µg/mL
same,Minimal concentration causing complete inhibition of visible growth (MIC),S. lactis,30 µg/mL
same,Minimal concentration causing complete inhibition of visible growth (MIC),P. fluorescens,> 1000 µg/mL
same,antibacterial activity (in words),bacteria,high antifungal and antibacterial activity
same,Minimal concentration causing complete inhibition of visible growth (MIC),Cladosporium cucumerinum,1 µg/mL
same,Minimal concentration causing complete inhibition of visible growth (MIC),Botrytis allii,0.5 µg/mL
same,Minimal concentration causing complete inhibition of visible growth (MIC),Aspergillus niger,5 µg/mL
same,Minimal concentration causing complete inhibition of visible growth (MIC),Penicillium italicum,1 µg/mL
same,antifungal activity (in words),fungi [1],high antifungal and antibacterial activity
CC[CH2][Sn]([CH2]CC)([CH2]CC)[CH2]Cc1ccncc1 [tripropyl-[3-(4-pyridyl)ethyl]tin],antibacterial activity (in words),bacteria,high antifungal as well as antibacterial activity
same,antifungal activity (in words),fungi [1],high antifungal as well as antibacterial activity
CCC[CH2][Sn]([CH3])([Br])[CH2]CC (stereo not shown) [MePrBuSnBr],"antifungal activity, MIC values",fungi [2],about 10 mg/l
CC[CH2][Sn]([CH2]CC)([CH2]CC)[CH2]CCNCCCN(C)C.Cl.Cl [Pr3 Sn(CH2)3 NH(CH2)3 NMe2 . 2],Minimal concentration causing complete inhibition of visible growth (MIC),B. subtilis,10 µg/mL
same,Minimal concentration causing complete inhibition of visible growth (MIC),E. coli,10 µg/mL
same,Minimal concentration causing complete inhibition of visible growth (MIC),S. lactis,10 µg/mL
same,Minimal concentration causing complete inhibition of visible growth (MIC),P. fluorescens,10 µg/mL
same,solubility in water,,50%
same,Minimal concentration causing complete inhibition of visible growth (MIC),Cladosporium cucumerinum,20 µg/mL
same,Minimal concentration causing complete inhibition of visible growth (MIC),Botrytis allii,≤ 10 µg/mL
same,Minimal concentration causing complete inhibition of visible growth (MIC),Aspergillus niger,20 µg/mL
same,Minimal concentration causing complete inhibition of visible growth (MIC),Penicillium italicum,10 µg/mL
CCC[CH2][Sn]([Br])([CH2]CCC)[CH2]CCC [Bu3 SnBr],"antifungal activity, MIC values",fungi [2],about 10 mg/l
CCC[CH2][Sn]([CH2]CCC)([CH2]CCC)[CH2]Cc1ccncc1 [tributyl-[3-(4-pyridyl)ethyl]tin],antifungal activity (in words),fungi [1],high antifungal activity
"CCC[CH2][Sn]([CH2]CCC)([CH2]CCC)[O][Sn]([CH2]CCC)([CH2]CCC)[CH2]CCC [bis(tributyltin)oxide, reference compound]",solubility in water,,0.003%
"CCC[CH2][Sn]([CH2]CCC)([CH2]CCC)[CH2]CCN(C)C [Bu3 Sn(CH2)3 NMe2, (3-dimethylaminopropyl)tributyltin]",solubility,physchem,~20 mg/mL
"CCC[CH2][Sn]([CH2]CCC)([CH2]CCC)[CH2]CCBr [Bu3 Sn(CH2)3 Br, (3-bromopropyl)tributyltin]",antifungal activity (in words),fungi [1],"somewhat less effective, although they show a surprisingly effective antifungal activity"
